Data from patent US6642217B2, “Triterpenes having human antifungal and antiyeast activity” (Naturtek, LLC, priority 2000, dated 2003).

Tests used:
[1] = system: Epidermophyton floccosum; assay: Summary of anti-fungal assays (direct addition, agar dilution, liquid culture); format: cell-based; conditions: stated in words (Tables 1a/1b, text to Table 5)
Protocol: (§1) This example summarizes the results of various other assays of the anti-fungal activity of betulin derivatives. Table 5 summarizes results using different assay methods—direct addition, agar dilution, and direct addition to liquid culture, as disclosed in the previous three Examples. In some cases, only one type of assay was done with a compound. In other cases, the compound was tested by multiple assays.

[2] = system: Microsporum canis; assay: Agar dilution method, growth on Sabouraud dextrose agar slants; format: cell-based; set-up: key: +++: Maximum Fungal Growth; ++: Moderate Fungal Growth; +: Minimum Fungal Growth; +/−: Very little Fungal Growth; −: No Fungal Growth; conditions: 12th day after inoculation
Protocol: (§2) Agar dilution method. Sabouraud Dextrose Agar (Difco Laboratories, Michigan) was prepared according to the manufacturer's instructions. Five ml was dispensed in a 100×25 mm tube and autoclaved. To each tube containing 5.0 ml of liquid agar at 45° C., 0.5, 0.25, 0.12, or 0.063 ml of a DMSO solution of the compound was added to give the final indicated concentrations in Table 2. The agar was then solidified in slants. Fungal cultures were inoculated. The slants were incubated at 25-28° C. for 10-12 days, and the growth of the fungus was recorded every second day.

[3] = system: Microsporum gypseum; assay: as above; format: cell-based; set-up: key: +++: Maximum Fungal Growth; ++: Moderate Fungal Growth; +: Minimum Fungal Growth; +/−: Very little Fungal Growth; −: No Fungal Growth; conditions: 12th day after inoculation
Protocol: as §2

[4] = system: Pityrosporum ovale; assay: as above; format: cell-based; set-up: key: +++: Maximum Fungal Growth; ++: Moderate Fungal Growth; +: Minimum Fungal Growth; +/−: Very little Fungal Growth; −: No Fungal Growth; conditions: 12th day after inoculation
Protocol: as §2

[5] = system: Trichophyton rubrum; assay: as above; format: cell-based; set-up: key: +++: Maximum Fungal Growth; ++: Moderate Fungal Growth; +: Minimum Fungal Growth; +/−: Very little Fungal Growth; −: No Fungal Growth; conditions: 12th day after inoculation
Protocol: as §2

[6] = system: Microsporum audouinni; assay: as above; format: cell-based, Microsporum audouinii; set-up: key: +++: Maximum Fungal Growth; ++: Moderate Fungal Growth; +: Minimum Fungal Growth; +/−: Very little Fungal Growth; −: No Fungal Growth; conditions: 12th day after inoculation
Protocol: as §2

[7] = system: Trichophyton tonsuran; assay: as above; format: cell-based, Trichophyton tonsurans; set-up: key: +++: Maximum Fungal Growth; ++: Moderate Fungal Growth; +: Minimum Fungal Growth; +/−: Very little Fungal Growth; −: No Fungal Growth; conditions: 12th day after inoculation
Protocol: as §2

[8] = system: Trichophyton mentagrophyte; assay: as above; format: cell-based, Trichophyton mentagrophytes; set-up: key to Fungal growth: +++: Maximum Fungal Growth; ++: Moderate Fungal Growth; +: Minimum Fungal Growth; +/−: Very little Fungal Growth; −: No Fungal Growth; conditions: 12th day after inoculation
Protocol: as §2

[9] = system: Epidermophyton floccosum; assay: as above; format: cell-based; set-up: key to Fungal growth: +++: Maximum Fungal Growth; ++: Moderate Fungal Growth; +: Minimum Fungal Growth; +/−: Very little Fungal Growth; −: No Fungal Growth; conditions: 12th day after inoculation
Protocol: as §2

[10] = system: Microsporum audouinii; assay: Summary of anti-fungal assays (direct addition, agar dilution, liquid culture); format: cell-based; conditions: stated in words (Tables 1a/1b, text to Table 5)
Protocol: as §1

[11] = system: Trichophyton tonsurans; assay: as above; format: cell-based; conditions: stated in words (Tables 1a/1b, text to Table 5)
Protocol: as §1

[12] = system: Microsporum audouinni; assay: Direct addition method, solid compound in Sabouraud dextrose agar; format: cell-based, Microsporum audouinii; set-up: key to Fungal growth: +++: Maximum Fungal Growth; ++: Moderate Fungal Growth; +: Minimum Fungal Growth; +/−: Very little Fungal Growth; −: No Fungal Growth
Protocol: (§3) Direct addition method. Sabouraud dextrose agar was prepared according to the manufacturer's instructions and 5.0 ml was dispensed in each 100×25 mm tube. The tubes were autoclaved. To each tube containing 5.0 ml of liquid agar at 45° C., 20 mg of solid test compound was added, to give a final concentration of 4 mg/ml. The agar was solidified in slants. The fungal cultures were then innoculated. The slants were incubated at 25-28 ° C. for 10-12 days, and the growth of the fungus was recorded every second day. The results in Table 2 indicate growth at the 12th day of inoculation.

[13] = system: Pityrosporum ovale; assay: Direct addition into the Pityrosporum agar; format: cell-based; set-up: key to Pityrosporum ovale growth: +++: Maximum Growth; ++: Moderate Growth; +: Minimum Growth; +/−: Very Little Growth; −: No Growth; conditions: 4 mg/ml in the agar; 18 hours after inoculation
Protocol: as §3, with “The slants were incubated at 25-28 ° C. for 10-12 days, and the growth of the fungus was recorded every second day. The results in Table 2 indicate growth at the 12th day of inoculation.” left out

[14] = system: Epidermophyton floccosum; assay: Direct addition method, solid compound in Sabouraud dextrose agar; format: cell-based; set-up: key: +++: Maximum Fungal Growth; ++: Moderate Fungal Growth; +: Minimum Fungal Growth; +/−: Very little Fungal Growth; −: No Fungal Growth; conditions: 4 mg/mL of agar; 12th day after inoculation
Protocol: as §3

[15] = system: Microsporum canis; assay: as above; format: cell-based; set-up: key: +++: Maximum Fungal Growth; ++: Moderate Fungal Growth; +: Minimum Fungal Growth; +/−: Very little Fungal Growth; −: No Fungal Growth; conditions: 4 mg/mL of agar; 12th day after inoculation
Protocol: as §3

[16] = system: Pityrosporum ovale; assay: as above; format: cell-based; set-up: key: +++: Maximum Fungal Growth; ++: Moderate Fungal Growth; +: Minimum Fungal Growth; +/−: Very little Fungal Growth; −: No Fungal Growth; conditions: 4 mg/mL of agar; 12th day after inoculation
Protocol: as §3

[17] = system: Trichophyton rubrum; assay: as above; format: cell-based; set-up: key: +++: Maximum Fungal Growth; ++: Moderate Fungal Growth; +: Minimum Fungal Growth; +/−: Very little Fungal Growth; −: No Fungal Growth; conditions: 4 mg/mL of agar; 12th day after inoculation
Protocol: as §3

C=C(C)C1CCC2(COC(=O)COCC(=O)O)CCC3(C)C(CCC4C5(C)CCC(O)C(C)(C)C5CCC43C)C12 (stereo not drawn) [Betulin-28-diglycolate]
against Epidermophyton floccosum: Active against Epidermophyton floccosum [1]

C=C(C)C1CCC2(COC(=O)c3ccccc3C(=O)O)CCC3(C)C(CCC4C5(C)CCC(O)C(C)(C)C5CCC43C)C12 (stereo not drawn) [Betulin-28-phthalate]
Microsporum audouinii: Active against Microsporum audouinii [10]
Trichophyton tonsurans: Active against Trichophyton tonsurans [11]
−: Fungal growth ([2]; 50 μg/ml) | Fungal growth ([2]; 100 μg/ml) | Fungal growth ([3]; 100 μg/ml) | Fungal growth ([4]; 100 μg/ml) | Fungal growth ([5]; 100 μg/ml) | Fungal growth ([6]; 50 μg/ml) | Fungal growth ([6]; 100 μg/ml) | Fungal growth ([7]; 50 μg/ml) | Fungal growth ([7]; 100 μg/ml) | Fungal growth ([8]; 100 μg/ml) | Fungal growth ([9]; 100 μg/ml)
++: Fungal growth ([2]; 12.5 μg/ml) | Fungal growth ([3]; 25 μg/ml) | Fungal growth ([3]; 50 μg/ml) | Fungal growth ([4]; 50 μg/ml) | Fungal growth ([5]; 12.5 μg/ml) | Fungal growth ([6]; 12.5 μg/ml) | Fungal growth ([7]; 12.5 μg/ml) | Fungal growth ([8]; 25 μg/ml) | Fungal growth ([9]; 25 μg/ml)
+++: Fungal growth ([3]; 12.5 μg/ml) | Fungal growth ([4]; 12.5 μg/ml) | Fungal growth ([4]; 25 μg/ml) | Fungal growth ([8]; 12.5 μg/ml) | Fungal growth ([9]; 12.5 μg/ml)
+: Fungal growth ([2]; 25 μg/ml) | Fungal growth ([5]; 25 μg/ml) | Fungal growth ([5]; 50 μg/ml) | Fungal growth ([6]; 25 μg/ml) | Fungal growth ([7]; 25 μg/ml) | Fungal growth ([8]; 50 μg/ml) | Fungal growth ([9]; 50 μg/ml)

C=C(C)C1CCC2(COC(=O)CCC(=O)O)CC[C@@]3(C)C(CCC4[C@@]5(C)CCC(O)C(C)(C)C5CC[C@]43C)C12 (stereo partly drawn) [Betulin-28-succinate]
−: Fungal growth ([2]; 1000 μg/ml) | Fungal growth ([3]; 1000 μg/ml) | Fungal growth ([5]; 1000 μg/ml) | Fungal growth ([6]; 500 μg/ml) | Fungal growth ([6]; 1000 μg/ml) | Fungal growth ([7]; 1000 μg/ml) | Fungal growth ([8]; 1000 μg/ml) | Fungal growth ([9]; 1000 μg/ml) | Fungal growth ([12]; 4 mg/mL of agar, 12th day after inoculation) | Fungal growth [14] | Fungal growth [16]
+: Fungal growth ([2]; 125 μg/ml) | Fungal growth ([2]; 250 μg/ml) | Fungal growth ([2]; 500 μg/ml) | Fungal growth ([3]; 250 μg/ml) | Fungal growth ([3]; 500 μg/ml) | Fungal growth ([5]; 125 μg/ml) | Fungal growth ([5]; 250 μg/ml) | Fungal growth ([5]; 500 μg/ml) | Fungal growth ([6]; 125 μg/ml) | Fungal growth ([7]; 250 μg/ml) | Fungal growth ([7]; 500 μg/ml) | Fungal growth ([8]; 250 μg/ml) | Fungal growth ([8]; 500 μg/ml) | Fungal growth ([9]; 250 μg/ml) | Fungal growth ([9]; 500 μg/ml) | Pityrosporum ovale growth [13] | Fungal growth [15] | Fungal growth [17]
++: Fungal growth ([3]; 125 μg/ml) | Fungal growth ([4]; 1000 μg/ml) | Fungal growth ([7]; 125 μg/ml) | Fungal growth ([8]; 125 μg/ml) | Fungal growth ([9]; 125 μg/ml)
+++: Fungal growth ([4]; 125 μg/ml) | Fungal growth ([4]; 250 μg/ml) | Fungal growth ([4]; 500 μg/ml)
against Microsporum audouinii: best anti-fungal or anti-yeast activity by the direct addition method ([12]; against Microsporum audouinii)
Microsporum audouinii: Active against Microsporum audouinii [10]
+/−: Fungal growth ([6]; 250 μg/ml)
